The test system of data set [1] is MCF-7 cells. It counts as cell-based, human. The note with it: 30 μM, 24 h. On the procedure:
The untreated cells were used as control.
MCF-7 cells were seeded in 6-well plates at 5.0×10^5 cells per well in 2 mL of complete DMEM and cultured for 24 h. […] MCF-7 cells without the treatment were used as a control. […] For cell cycle determination, treated cells were collected, washed for twice with ice-cold PBS, fixed with 70% ethanol at 4° C. overnight and treated with Rnase A for 45 min at 37° C., followed by PI staining for 30 min in the dark.

The subject of another data set is caspase-3. Description: Western blot analysis of caspase-3 expression. In kind it is cell-based, human. To be noted: MCF-7 cells, 30 μM, 24 h. (A western blot detects proteins with antibodies after separation by electrophoresis.)
Data set [2] is described as follows: In vivo biodistribution in MCF-7 tumor-bearing mice. Details: species or system Balb/c female nude mice. To be noted: MCF-7 tumor-bearing nude mice, i.v.; Cb 3.5, Ir 6.7, Ir-Cb nanoparticles 10 mg kg^−1. The protocol: Furthermore, to examine the amount of Ir-Cb ADDC in the tumors and other organs, the MCF-7 tumor-bearing mice were sacrificed after intravenous injection with different time intervals. The tumor-bearing mice treated with free Cb and Ir were used as controls. […] After injection for 6 h, the content of Ir-Cb ADDC obviously decreases in kidney, spleen and lung, whereas the downward trend in tumor and liver is slower (FIG. 13b). […] After 6 h, the Ir concentration in spleen and lung decreases quickly.
The biodistribution of Cb, Ir and Ir-Cb nanoparticles was analyzed in Balb/c female nude mice bearing MCF-7 tumors. The MCF-7 tumor-bearing mice were intravenously injected via tail vein with Cb, Ir and Ir-Cb nanoparticles at a dose of Cb (3.5 mg kg^−1), Ir (6.7 mg kg^−1) and Ir-Cb nanoparticles (10 mg kg^−1). Mice were sacrificed by cervical vertebra dislocation at 30 min, 1 h and 6 h after drug administration (n=3 at each time point), and the heart, liver, spleen, lung, kidney and tumor were collected. Tissue samples were rinsed in saline, blotted using paper towel, weighed and stored at −80° C. before being homogenized. Cb, Ir and Ir-Cb were extracted from the homogenate using 2 mL of dichloromethane and methanol (4:1, v/v). The organic phases were collected and dried, and the samples were dissolved in acetonitrile for analysis.

In data set [3] the test system is MCF-7 tumor. In kind it is in vivo, Balb/c female nude mice. The note with it: for tumor inhibitory rate (TIR): from tumor weight versus PBS group, 24 days. The protocol:
Tumor volume and body weight of tumor-bearing mice were monitored every 3 days within 24 days. […] The tumor inhibitory rate (TIR) was calculated from tumor weight.
Study protocols involving animals were approved by the Animal Ethics Committee of Shanghai Jiao Tong University School of Medicine. SD rats (˜200 g) and 72 Balb/c female nude mice (4 weeks of age) were supplied by Chinese Academy of Sciences (Shanghai). The female nude mice were injected subcutaneously in the right flank region with 200 μL of cell suspension containing 4×10^6 MCF-7 cells. The tumors were allowed to grow to ˜200 mm^3 before experimentation.
Each mouse of different group was earmarked and followed individually throughout the whole experiments. The length and width of the tumor and the body weight of mice were measured before every injection by the end of experiment. Tumor volume (V) was calculated using the formula: V (mm^3)=½×length (mm)×width (mm)^2. After 24 days postinjection, mice were sacrificed, and tumors were separated, weighted and photographed. In addition, the tumors were cut into small pieces, fixed in 10% formalin and embedded in paraffin. Then the tissues embedded in paraffin were sectioned for histopathological analysis with H&E staining.

A short description of data set [4]: Pharmacokinetic study (blood retention) after i.v. injection. The note with it: rats, 8 mg kg^−1, 12 h.
Procedure: The blood samples (0.5 mL) were taken from the eye socket at the 5 min, 15 min, 30 min, 1 h, 2 h, 4 h, 6 h, 8 h, and 12 h time points after injection. The plasma was obtained by centrifugation at 3,000 rpm for 10 min and stored at −20° C. A 200 μL of plasma was treated two times with 250 μL of acetonitrile and methanol mixture (1:1 v/v). The solvent solutions separated by centrifugation were pooled.
Data set [5] relates to MCF-7 cells. Description: In vitro cytotoxicity by MTT assay, MCF-7 cells. The protocol:
The cells without any treatment were used as the control.
The cells were seeded into 96-well plates at 1×10^4 cells per well in 200 μL of culture medium. […] The cells without the treatment were used as control. The cells were grown for another 72 h. Then, 20 μL of 5 mg mL^−1 MTT assay stock solution in PBS was added to each well. After the cells were incubated for 4 h, the medium containing unreacted MTT was carefully removed. Then, the obtained blue formazan crystals were dissolved in 200 μL well^−1 DMSO, and the absorbance was measured in a BioTek Synergy H4 hybrid reader at a wavelength of 490 nm. The blank was subtracted to the measured optical density (OD) values, and the cell viability was expressed as % of the values obtained for the untreated control cells.
(In general: Formazan colour is commonly taken as a measure of viable cells.)

In data set [6] the test system is MCF-7 cells. Description: Cell cycle assay (PI staining, flow cytometry). In kind it is cell-based, human. To be noted: 30 μM, 24 h. On the procedure: MCF-7 cells were seeded in 6-well plates at 5.0×10^5 cells per well in 2 mL of complete DMEM and cultured for 24 h. […] MCF-7 cells without the treatment were used as a control. For quantitative measurement of apoptosis, treated cells were harvested and washed twice with ice-cold PBS, stained with Alexa Fluor® 488 annexin V and PI according to the manufacturer's instructions. For cell cycle determination, treated cells were collected, washed for twice with ice-cold PBS, fixed with 70% ethanol at 4° C. overnight and treated with Rnase A for 45 min at 37° C., followed by PI staining for 30 min in the dark. Both cell apoptosis and cycle were analyzed by flow cytometry (BD FACSCalibur, USA), and […] per sample were counted.
On the technique in general: A flow cytometer gives signals particle by particle.

Data set [7] is described as follows: Self-assembly of Ir-Cb ADDC in water: size and morphology by DLS and TEM. It counts as physicochemical. The protocol:
The inherent amphiphilicity of the Ir-Cb ADDC provides an opportunity for itself to self-assemble into nanoparticles in water. To determine the size and morphology of the self-assembled nanoparticles, a dimethylsulfoxide (DMSO) solution of the Ir-Cb ADDC was added dropwise into water, followed by dialysis against water to remove DMSO. A stable and bluish solution with the final Ir-Cb conjugate concentration of 0.5 mg mL^−1 was obtained. FIG. 7a gives the dynamic light scattering (DLS) curve of Ir-Cb ADDC aqueous solution with a concentration of 0.5 mg mL^−1, indicating the formation of aggregates with a narrow unimodal distribution and an average hydrodynamic diameter of approximate 88.3 nm. The morphology of the aggregates was observed by transmission electron microscopy (TEM). […] This size is slightly smaller than that measured by DLS due to the shrinkage of nanoparticles in a drying state during TEM sample preparation. […]
^1H and ^13C nuclear magnetic resonance (^1H NMR and ^13C NMR) spectra were recorded using a Varian Mercury Plus 400 MHz spectrometer. Fourier transform infrared (FTIR) spectra were recorded on a Paragon 1,000 instrument by KBr sample holder method. […] All samples were measured at a scattering angle of 90°. […] Ultraviolet-visible (UV-Vis) absorption of the sample solutions was measured at room temperature by using a Thermo Electron-EV300 UV-Vis spectrophotometer. […]

Data set [8] is described as follows: Critical aggregation concentration (CAC) measurement with pyrene fluorescent probe. It counts as physicochemical. To be noted: in water, pyrene I3/I1. The protocol: To investigate the self-assembly behavior of Ir-Cb ADDC in water, the critical aggregation concentration (CAC) was measured by using pyrene as a fluorescent probe. I1 and I3 are the emission intensities of the first and third bands in the fluorescence spectrum of pyrene respectively, which are labeled as 1 and 3 in the inset of FIG. 7c. The emission intensity ratio of I3/I1 is very sensitive to the polarity of the medium surrounding pyrene molecules. (Kwon, et al. 1993 Langmuir 9, 945-949.) The higher polarity of the medium, the lower the intensity ratio is. The relationship of the I3/I1 ratio with the Ir-Cb ADDC concentration is present in FIG. 7c. At low Ir-Cb ADDC concentration, the I3/I1 value remains nearly unchanged, indicating the characteristics of pyrene in water environment. With increasing Ir-Cb ADDC concentration, the ratio of I3/I1 starts to increase dramatically and reaches the characteristic level of pyrene in hydrophobic environment at a certain Ir-Cb ADDC concentration. According to the inflexion of the curve, the CAC value of the Ir-Cb ADDC is about 7 μg mL^−1.
To determine the CAC value of the Ir-Cb ADDC, pyrene was used as the fluorescence probe. […] The fluorescence emission spectra of all samples were recorded on a LS-50B luminescence spectrometer (Perkin Elmer Co.) at 335 nm excitation wavelength and 8 nm slit width. The I3/I1 values of all solution were recorded.

The test system of a further data set is MCF-7/ADR cells. Description: Accumulation and efflux assay in MCF-7 and MCF-7/ADR cells (flow cytometry). It counts as cell-based, human. To be noted: 30 μM, 1-4 h incubation.
Data set [9] has as its system MCF-7 tumor. As to the kind of experiment: Immunohistochemical analysis of tumor tissues (H&E, PCNA). The note with it: MCF-7 tumors after treatment. It counts as in vivo, Balb/c female nude mice. The protocol:
3 days after the last injection, mice were sacrificed and tumor tissues were excised. The tissues were fixed in 10% formalin and embedded in paraffin. The paraffin-embedded 5 μm tumor sections were analyzed by immunohistochemical analysis for PCNA expression. To analyze the PCNA, endogenous peroxidase activity was inhibited by 3% hydrogen peroxide aqueous solution for 10 min, and the sections were heated to boiling in 0.01 M sodium citrate buffer (pH 6.0) for 10 min in the microwave oven for antigen retrieval and repeated boiling process for once. Subsequently, the sections were allowed to cool in the same buffer, rinsed twice with PBS for 5 min and then incubated with PCNA antibody (Boster, China, 1:200) for 30 min at room temperature and then at 4° C. overnight. After washing, sections were incubated with biotinylated secondary antibodies for 20 min at 37° C. Finally, a streptavidin-biotin complex was applied and the immunoreactivity was visualized with diaminobenzidine as a chromogen. The sections were imaged by using Olympus Fluorescence Microscope (Olympus BX61). […]
Each mouse of different group was earmarked and followed individually throughout the whole experiments. The length and width of the tumor and the body weight of mice were measured before every injection by the end of experiment. Tumor volume (V) was calculated using the formula: V (mm^3)=½×length (mm)×width (mm)^2. […]

Data set [10] is described as follows: In vitro drug release by dialysis in buffered solutions. To be noted: pH 5.0, 37° C.

Procedure for MCF-7/ADR cells: The fluorescent intensity was calculated by CellQuest software, and blanked by untreated cells.
Procedure for caspase-3: The untreated MCF-7 cells were used as a negative control.
MCF-7 cells were seeded in 6-well plates at a density of 5.0×10^5 cells per well in 2 mL of complete DMEM and allowed to attach for 24 h. […] MCF-7 cells untreated were used as a negative control. After treatment for 24 h, the MCF-7 cells were harvested. The cellular proteins were extracted in Laemmli buffer and the protein content in the extracts was quantified using a bicinchoninic acid (BCA) protein assay kit (Pierce, USA). Equal amounts of proteins (30 μg lane^−1) were separated on sodium dodecyl sulfate-polyacrylamide gels (SDS-PAGE) and electrotransferred to 0.22 μm polyvinylidene fluoride (PVDF) membranes. The membranes were then blocked with 5% non-fat dry milk in TBST (Tris buffered saline supplemented with 0.05% Tween-20) and probed with antibodies against β-actin (1:1,000 dilution), caspase-3 (1:1,000 dilution) followed by HRP-conjugated (HRP: horseradish peroxidase) anti-rabbit immunoglobulin-G (IgG, 1:5,000 dilution). β-Actin was used as the loading control. Protein bands were detected using Chemiluminescent HRP Substrate (Themo Scientific, USA) according to the manufacture's protocol and analyzed using the ChemiDoc™ MP Imaging System (Bio-Rad, USA).

Take `O=C(O)CCCc1ccc(N(CCCl)CCCl)cc1` [Cb, chlorambucil]: in the data set with MCF-7 cells [1], the “ratio of apoptosis cells” value was 18.02%. Moreover, the “caspase-3 protein expression versus untreated control” value in the data set with caspase-3 was “up-regulated slightly”. The tissue distribution entry in data set [2] was “largely accumulates in liver, followed by spleen, lung, heart and kidney”. Moreover, in the data set with MCF-7 tumor [3] (after 24 days treatment, i.v. once every 3 days), the “tumor volume compared with the PBS group” value is given as 91.60±2.09%. In the data set with MCF-7 tumor [3], the “tumor inhibitory rate (TIR)” value is reported as 9.3±2.10%. Moreover, in [4], the “plasma concentration after 12 h relative to Ir-Cb ADDC” value was “one twenty-fifth”.

The IC50 is the concentration that inhibits the measured activity by half. On to `CCc1c2c(nc3ccc(OC(=O)N4CCC(N5CCCCC5)CC4)cc13)-c1cc3c(c(=O)n1C2)COC(=O)[C@]3(O)CC` [Ir, irinotecan], for which the IC50 with MCF-7 cells [5] (Homo sapiens, MCF7, 72 h) was about 5 µM. In the data set on MCF-7 cells [5] (MCF-7 cells), the “cytotoxicity compared with free Cb” value is listed as “much higher than that of free Cb”. Besides, the “caspase-3 protein expression versus untreated control” value in the data set on caspase-3 was “up-regulated slightly”. Also, in the data set with MCF-7 cells [6], the “percentage of G0/G1 phase” value came to 34.25%, the “percentage of G2/M” value was 27.81% and the “percentage of S” value worked out at 37.93%. In addition, the tissue distribution result in [2] was “mainly accumulates in liver, followed by spleen, lung, kidney and heart up to 2 h”. In the data set with MCF-7 tumor [3], the “tumor inhibitory rate (TIR)” value is listed as 42.3±6.63%.

As for `CCc1c2c(nc3ccc(OC(=O)N4CCC(N5CCCCC5)CC4)cc13)-c1cc3c(c(=O)n1C2)COC(=O)[C@@]3(CC)OC(=O)CCCc1ccc(N(CCCl)CCCl)cc1` [Ir-Cb ADDC], the “average hydrodynamic diameter (Dh) by DLS” value in data set [7] (aqueous solution 0.5 mg mL^−1) is about 88.3 nm. In [7] (dried state), the “average size of spherical nanoparticles by TEM” value was about 75.7 nm. Besides, the “critical aggregation concentration (CAC)” value in data set [8] was “about 7 μg mL^−1”. For the same molecule, in the data set with MCF-7 cells [5] (MCF-7 cells, concentration higher than the CAC value), the “anticancer efficiency compared with free Ir and Ir/Cb mixture” value is “much better anticancer efficiency than free Ir and Ir/Cb mixture”. Besides, the “antitumor activity compared with free Ir and Ir/Cb mixture” value in the data set on MCF-7 cells [5] (MCF-7 cells, drug concentration lower than the CAC value) was “worse than that of free Ir and Ir/Cb mixture”. Moreover, the “accumulation in MCF-7/ADR cells compared with that in MCF-7 cells” value with MCF-7/ADR cells was “about ½”. Also, in data set [2], the tissue distribution entry was “accumulate in liver, spleen, kidney, lung and tumor at first 2 h”. For the same molecule, the “H&E histology of tumor tissue” value in the data set with MCF-7 tumor [9] is “large necrotic area is observed”. The “Ir release / hydrolysis at pH 5.0” value in [10] is listed as “hydrolysis of Ir-Cb ADDC is accelerated”.

The values above are taken from patent US10960078B2 (priority 2013, dated 2021).
